Assay results reported in patent US20060063913A1, “SSX-2 peptide analogs” (priority 2004, published 2006).
Where a SMILES comes first, the peptide text is derived from it. Where no end group is shown, it is not given here. [ ]: non-standard residue; d: D form. Orn = NCCC[C@H](N)C(=O)O; Nva = CCC[C@H](N)C(=O)O

Legend:
HLA-A*0201 = HLA-A*0201 (Homo sapiens, UniProt P04439, D140Y/D185E/D98H/E176V/E277Q/G131W/G231S/I119V/I121R/I166T/I218V/L300P/L318F/N151K/N90K/P208A/P217A/Q86G/Q94H/R138H/R169H/T345S); assay: ED50 (M)
[1] = system: T cells specific for the wild-type NY-ESO-1157-165 epitope; assay: Cross-reactivity and functional avidity of NY-ESO-1 157-165 analogs (IFN-gamma, T cells specific for the wild-type epitope); format: cell-based, HHD transgenic mice; settings: IFN-gamma production ex vivo
[2] = system: T cell lines specific for the native epitope (PRAME425-433); assay: Cross-reactivity of PRAME 425-433 analogs: IFN-gamma secretion from T cell lines specific for the native epitope; format: cell-based, HHD transgenic mice; settings: analog peptide at approximately 0.3 μM
Protocol: The analogs listed in FIGS. 26-28 were tested for various properties such as improved affinity and stability of binding, cross-reactivity with the native epitope, and immunogenicity as follows in Examples 40-48. […] The observed affinities of the analogs are reported as % binding (compared to the positive control) and ED50s. Stability of binding as half time of dissociation. Cross reactivity with the native epitope was assessed by using the analog peptides to stimulate IFG-gamma secretion from a T cell lines specific for the native epitope, essentially as described in Example 6. The data shown in FIGS. 26-28 were generated by stimulating with analog peptide at approximately 0.3 μM. […] In some cases the reported values are the average of two determinations.

HLA-A*0201 on T2 cells = target: T1, HLA-A*0201 on T2 cells (human); assay: T2 cell binding assay (flow cytometry)
T1 construct: Class I MHC stabilised on T2 cells by added peptide, detected with a fluorescent anti-A2 antibody; also called HLA-A2; MHC class I (A2 allele)

Molecule	EC50 (HLA-A*0201) [µM]	further results
SMLQHLIGL [3 | Prame 425-433 (L426M)]	0.988	
CCC[C@H](NC(=O)[C@@H](N)CO)C(=O)N[C@@H](CC(C)C)C(=O)N[C@@H](CCC(N)=O)C(=O)N[C@@H](Cc1c[nH]cn1)C(=O)N[C@@H](CC(C)C)C(=O)N[C@H](C(=O)NCC(=O)N[C@@H](CC(C)C)C(=O)O)[C@@H](C)CC [6 | Prame 425-433 (L426(Nva)), S(Nva)LQHLIGL] (H-S[Nva]LQHLIGL-OH; N-terminus and C-terminus assumed)	1.91	
CC[C@H](C)[C@H](NC(=O)[C@H](CC(C)C)NC(=O)[C@H](Cc1c[nH]cn1)NC(=O)[C@H](CCC(N)=O)NC(=O)[C@H](CC(C)C)NC(=O)[C@H](CC(C)C)NC(=O)[C@@H](N)CCCN)C(=O)NCC(=O)N[C@@H](CC(C)C)C(=O)O [12 | Prame 425-433 (S425(Orn))] (H-[Orn]LLQHLIGL-OH; N-terminus and C-terminus assumed)	2.25	
TLLQHLIGL [11 | Prame 425-433 (S425T)]	1.45	
YLLQHLIGL [10 | Prame 425-433 (S425Y)]	0.55	
NY-ESO-1157-166: 10-mer of the wild-type NY-ESO-1 sequence, residues 157-166 (SLLMWITQCF; UniProt P78358 157-166, looked up, fragment)		Activity in the cross-reactivity/functional avidity assay relative to wild-type NY-ESO-1 157-165, in words [1]: showed no immunological activity
FLLQHLIGL [9 | Prame 425-433 (S425F)]	0.433	
Lys P1 analog: PRAME 425-433 analog with Lys for the Ser at the P1 position (KLLQHLIGL; UniProt P78395 425-433, looked up, variant S425K)		IFN-γ elicited, as percent of the native peptide [2]: 40%
CCC[C@H](NC(=O)CNC(=O)[C@@H](NC(=O)[C@H](CC(C)C)NC(=O)[C@H](Cc1c[nH]cn1)NC(=O)[C@H](CCC(N)=O)NC(=O)[C@H](CC(C)C)NC(=O)[C@H](CC(C)C)NC(=O)[C@@H](N)CO)[C@@H](C)CC)C(=O)O [18 | Prame 425-433 (L433(Nva))] (H-SLLQHLIG[Nva]-OH; N-terminus and C-terminus assumed)	1.66	
KVSEKIFYX (C-terminal amide) [SSX-2 41-49-NH2 (A42V)]		binding result (HLA-A*0201 on T2 cells): no binding
